Data reported in patent US9302999B2, “Substituted triazoles as herbicides” (E. I. DU PONT DE NEMOURS AND COMPANY, priority 2012, dated 2016).

Legend:
Format in all cases: in vivo
[1] = system: bermudagrass (Cynodon dactylon); test: Test C pre-/postemergence: bermudagrass
Summary of the method: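 Preemergence on seeds in loam/sand, postemergence on 2–18 cm (1–4-leaf) plants in peat-based medium; compounds in non-phytotoxic solvent with surfactant. After 13–15 days in greenhouse, visual rating versus controls, 0 (no effect) to 100 (complete control).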

[2] = system: common (oilseed) sunflower (Helianthus annuus); test: Test C pre-/postemergence: sunflower; settings: Preemergence
Text: Seeds of plant species selected from blackgrass (Alopecurus myosuroides), bromegrass, downy (downy bromegrass, Bromus tectorum), foxtail, green (green foxtail, Setaria viridis), ryegrass, Italian (Italian ryegrass, Lolium multiflorum), winter wheat (Triticum aestivum), wild oat (Avena fatua), galium (catchweed bedstraw, Galium aparine), bermudagrass (Cynodon dactylon), surinam grass (Brachiaria decumbens), cocklebur (common cocklebur, Xanthium strumarium), corn (Zea mays), large crabgrass (Digitaria sanguinalis), woolly cupgrass (Eriochloa villosa), foxtail, giant (giant foxtail, Setaria faberii), goosegrass (Eleusine indica), johnsongrass (Sorghum halepense), kochia (Kochia scoparia), lambsquarters (Chenopodium album), morningglory (Ipomoea coccinea), nightshade (eastern black nightshade, Solanum ptycanthum), nutsedge, yellow (yellow nutsedge, Cyperus esculentus), pigweed (Amaranthus retroflexus), ragweed (common ragweed, Ambrosia elation), soybean (Glycine max), common (oilseed) sunflower (Helianthus annuus), Russian thistle (Salsola kali) and velvetleaf (Abutilon theophrasti) were planted into a blend of loam soil and sand and treated preemergence with test chemicals formulated in a non-phytotoxic solvent mixture which included a surfactant.
At the same time, plants selected from these crop and weed species and also barley (winter barley, Hordeum vulgare), canarygrass (Phalaris minor), chickweed (common chickweed, Stellaria media) windgrass (Apera spica-venti) and deadnettle (henbit deadnettle, Lamium amplexicaule) were planted in pots containing Redi-Earth® planting medium (Scotts Company, 14111 Scottslawn Road, Marysville, Ohio 43041) comprising spaghnum peat moss, vermiculite, wetting agent and starter nutrients and treated with postemergence applications of test chemicals formulated in the same manner. Plants ranged in height from 2 to 18 cm (1- to 4-leaf stage) for postemergence treatments.
Treated plants and controls were maintained in a greenhouse for 13 to 15 days, after which time all species were compared to controls and visually evaluated. Plant response ratings, summarized in Table C, are based on a scale of 0 to 100 where 0 is no effect and 100 is complete control. A dash (-) response means no test result.

[3] = system: sedge, umbrella (small-flower umbrella sedge Cyperus difformis); test: Test B flooded paddy: sedge, umbrella; settings: Flood; 250 g ai/ha; applied to paddy water at 2-leaf stage; visually evaluated after 13 to 15 days
Summary of the method: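 Plants were grown to the 2-leaf stage, then pots were flooded to 3 cm above the soil and compounds were applied directly into the paddy water. Water depth was held for the whole test; after 13 to 15 days in a greenhouse, injury was visually rated against untreated controls (0 = no effect, 100 = complete control).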

[4] = system: ryegrass, Italian (Italian ryegrass, Lolium multiflorum); test: Test D pre-/postemergence: ryegrass, Italian
Summary of the method: (§1)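 Visual 0–100 rating versus untreated controls (0 no effect, 100 complete control), taken 14 to 21 days after treatment in a controlled growth environment. Preemergence: silt loam soil. Postemergence: peat moss/vermiculite medium, plants 2 to 18 cm, 1- to 4-leaf stage. Solvent mixture with surfactant.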

[5] = system: buckwheat, wild (wild buckwheat, Polygonum convolvulus); test: Test D pre-/postemergence: buckwheat, wild
Summary of the method: as §1

[6] = system: barley (winter barley, Hordeum vulgare); test: Test C postemergence: barley
Summary of the method: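 Pot-grown plants in peat/vermiculite medium sprayed postemergence at 2–18 cm height (1- to 4-leaf stage). Kept in greenhouse 13 to 15 days, then visually rated against untreated controls on a 0–100 scale (0 = no effect, 100 = complete control).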

[7] = system: chamomile (scentless chamomile, Matricaria inodora); test: Test D pre-/postemergence: chamomile
Summary of the method: as §1

[8] = system: Russian thistle (Salsola iberica); test: Test D pre-/postemergence: Russian thistle
Summary of the method: as §1

[9] = Postemergence, 31 g ai/ha, scale 0 to 100 (0 no effect, 100 complete control)
[10] = Postemergence, 62 g ai/ha, scale 0 to 100 (0 no effect, 100 complete control)
[11] = Postemergence, 125 g ai/ha, scale 0 to 100, 0 no effect, 100 complete control
[12] = Postemergence, 250 g ai/ha, scale 0 to 100
[13] = Preemergence, 62 g ai/ha, scale of 0 to 100, 0 is no effect, 100 is complete control
[14] = Preemergence, 125 g ai/ha, scale 0 to 100, 0 no effect, 100 complete control
[15] = Preemergence, 250 g ai/ha, scale 0 to 100, 0 no effect, 100 complete control
[16] = 62 g ai/ha, scale of 0 to 100, 0 is no effect, 100 is complete control
[17] = 125 g ai/ha, scale 0 to 100, 0 no effect, 100 complete control
[18] = 250 g ai/ha, scale 0 to 100, 0 no effect, 100 complete control
[19] = Postemergence, 250 g ai/ha, scale 0 to 100 (0 no effect, 100 complete control)
[20] = Postemergence, 16 g ai/ha, scale 0 to 100
[21] = Preemergence, 16 g ai/ha, scale 0 to 100 (0 no effect, 100 complete control)
[22] = Preemergence, 31 g ai/ha, scale 0 to 100 (0 no effect, 100 complete control)
[23] = Preemergence, 62 g ai/ha, scale 0 to 100
[24] = Preemergence, 125 g ai/ha, scale 0 to 100
[25] = Preemergence, 250 g ai/ha, scale 0 to 100
[26] = 31 g ai/ha, scale 0 to 100 (0 no effect, 100 complete control)
[27] = 62 g ai/ha, scale 0 to 100 (0 no effect, 100 complete control)
[28] = Postemergence, 8 g ai/ha, scale 0 to 100

SMILES: CCOc1nn(-c2ccc(F)cc2)nc1Cc1ccnc(C(F)F)c1 [Compound 195]
- Plant response rating, Bermudagrass [1, 9]: 40
- Plant response rating, Bermudagrass [1, 10]: 60
- Plant response rating, Bermudagrass [1, 11]: 90
- Plant response rating, Bermudagrass [1, 12]: 95
- Plant response rating, Bermudagrass ([1]; Preemergence, 31 g ai/ha, scale 0 (no effect) to 100 (complete control)): 98
- Plant response rating, Bermudagrass [1, 13]: 98
- Plant response rating, Bermudagrass [1, 14]: 98
- Plant response rating, Bermudagrass [1, 15]: 98
- Plant response rating, Sunflower ([2]; 31 g ai/ha, scale 0 (no effect) to 100 (complete control)): 0
- Plant response rating, Sunflower [2, 16]: 15
- Plant response rating, Sunflower [2, 17]: 15
- Plant response rating, Sunflower [2, 18]: 20
- Plant response rating, Sedge, Umbrella (0 to 100 scale, 0 is no effect, 100 is complete control) [3]: 100
- Plant response rating: Ryegrass, Italian [4, 9]: 10
- Plant response rating: Ryegrass, Italian [4, 10]: 20
- Plant response rating: Ryegrass, Italian [4, 11]: 20
- Plant response rating: Ryegrass, Italian [4, 19]: 25
- Plant response rating, Ryegrass, Italian [4, 20]: 5
- Plant response rating, Ryegrass, Italian [4, 21]: 0
- Plant response rating, Ryegrass, Italian [4, 22]: 0
- Plant response rating, Ryegrass, Italian [4, 23]: 0
- Plant response rating, Ryegrass, Italian [4, 24]: 20
- Plant response rating, Ryegrass, Italian [4, 25]: 60
- Plant response rating: Buckwheat, Wild [5, 9]: 20
- Plant response rating: Buckwheat, Wild [5, 10]: 30
- Plant response rating: Buckwheat, Wild [5, 11]: 35
- Plant response rating: Buckwheat, Wild [5, 19]: 65
- Plant response rating, Buckwheat, Wild [5, 20]: 15
- Plant response rating, Buckwheat, Wild [5, 21]: 0
- Plant response rating, Buckwheat, Wild [5, 22]: 0
- Plant response rating, Buckwheat, Wild [5, 23]: 20
- Plant response rating, Buckwheat, Wild [5, 24]: 20
- Plant response rating, Buckwheat, Wild [5, 25]: 40
- Plant response rating, Barley [6, 26]: 15
- Plant response rating, Barley [6, 27]: 20
- Plant response rating, Barley [6, 17]: 35
- Plant response rating, Barley ([6]; 250 g ai/ha, scale 0 to 100): 35
- Plant response rating: Chamomile [7, 9]: 20
- Plant response rating: Chamomile [7, 10]: 20
- Plant response rating: Chamomile [7, 11]: 20
- Plant response rating: Chamomile [7, 19]: 50
- Plant response rating, Chamomile [7, 20]: 20
- Plant response rating, Chamomile [7, 21]: 0
- Plant response rating, Chamomile [7, 22]: 0
- Plant response rating, Chamomile [7, 23]: 100
- Plant response rating, Chamomile [7, 24]: 100
- Plant response rating, Chamomile [7, 25]: 100
- Plant response rating: Russian Thistle [8, 9]: 40
- Plant response rating: Russian Thistle [8, 10]: 80
- Plant response rating: Russian Thistle [8, 11]: 85
- Plant response rating: Russian Thistle [8, 19]: 100
- Plant response rating, Russian Thistle [8, 20]: 15
- Plant response rating, Russian Thistle [8, 21]: 0
- Plant response rating, Russian Thistle [8, 22]: 0
- Plant response rating, Russian Thistle [8, 23]: 0
- Plant response rating, Russian Thistle [8, 24]: 0
- Plant response rating, Russian Thistle [8, 25]: 30

SMILES: Cc1nn(-c2ccc(F)c(F)c2)nc1Oc1ccnc(C(F)(F)F)c1 [Compound 145]
- Plant response rating, Bermudagrass [1, 9]: 10
- Plant response rating, Bermudagrass [1, 10]: 40
- Plant response rating, Bermudagrass [1, 11]: 75
- Plant response rating, Bermudagrass [1, 12]: 90
- Plant response rating, Bermudagrass ([1]; Preemergence, 31 g ai/ha, scale of 0 to 100, 0 is no effect, 100 is complete control): 98
- Plant response rating, Bermudagrass [1, 13]: 98
- Plant response rating, Bermudagrass [1, 14]: 98
- Plant response rating, Bermudagrass [1, 15]: 98
- Plant response rating, Sunflower ([2]; 31 g ai/ha, scale of 0 to 100, 0 is no effect, 100 is complete control): 0
- Plant response rating, Sunflower [2, 16]: 5
- Plant response rating, Sunflower [2, 17]: 20
- Plant response rating, Sunflower [2, 18]: 25
- Plant response rating, Sedge, Umbrella (0 to 100 scale, 0 is no effect, 100 is complete control) [3]: 85
- Plant response rating: Ryegrass, Italian [4, 9]: 10
- Plant response rating: Ryegrass, Italian [4, 10]: 15
- Plant response rating: Ryegrass, Italian [4, 11]: 30
- Plant response rating, Ryegrass, Italian [4, 28]: 0
- Plant response rating, Ryegrass, Italian [4, 20]: 0
- Plant response rating: Buckwheat, Wild [5, 9]: 35
- Plant response rating: Buckwheat, Wild [5, 10]: 45
- Plant response rating: Buckwheat, Wild [5, 11]: 85
- Plant response rating, Buckwheat, Wild [5, 28]: 15
- Plant response rating, Buckwheat, Wild [5, 20]: 30
- Plant response rating, Barley [6, 26]: 15
- Plant response rating, Barley [6, 27]: 20
- Plant response rating, Barley [6, 17]: 35
- Plant response rating, Barley ([6]; 250 g ai/ha, scale 0 to 100): 45
- Plant response rating: Chamomile [7, 9]: 10
- Plant response rating: Chamomile [7, 10]: 10
- Plant response rating: Chamomile [7, 11]: 30
- Plant response rating, Chamomile [7, 28]: 0
- Plant response rating, Chamomile [7, 20]: 0
- Plant response rating: Russian Thistle [8, 9]: 95
- Plant response rating: Russian Thistle [8, 10]: 98
- Plant response rating: Russian Thistle [8, 11]: 100
- Plant response rating, Russian Thistle [8, 28]: 10
- Plant response rating, Russian Thistle [8, 20]: 40
